≈ marks a conversion by molar mass, not a printed value. Where “and” joins values, the source holds several entries; their conditions need not be identical. Equal values may be shown once.
Columns and labels:
Cryptosporidium parvum = assay: Antiparasitic activity against Cryptosporidium parvum infected in human […] cells after 46 hrs by immunofluorescence method; type: functional, organism-based
HCT-8 [1] = assay: Cytotoxicity against human HCT8 cells at 1.96 to 22.7 uM; type: cell-based; details: hct-8, 22.7 µM
HCT-8 [2] = assay: Cytotoxicity against human HCT8 cells assessed as effect on cell viability at 25.69 to 37.22 uM; type: cell-based; details: hct-8, 37.22 µM
[3] = Cryptosporidium parvum, HCT-8, 46 h, read-out: IC50

SMILES | IC50 (Cryptosporidium parvum; [3]) [µg/mL] | IC50 (Cryptosporidium parvum; htc8) | Activity (HCT-8 [1]) | Activity (HCT-8 [2])
CS(=O)(=O)c1cnc(NC(=O)c2ccccc2O)s1 | 6.9 (≈ 23.1 µM) | Not Active | Non-toxic | –
O=C(Nc1ncc(-c2ccccc2Cl)s1)c1ccccc1O | 6.1 (≈ 18.4 µM) | Not Active | Non-toxic | Toxic
O=C(Nc1ncc(C2CCCCC2)s1)c1ccccc1O | > 10 | Not Active | Non-toxic | –
CCCc1cnc(NC(=O)c2ccccc2O)s1 | 6.7 (≈ 25.5 µM) | Not Active | Non-toxic | –
Cc1cnc(NC(=O)c2ccccc2O)s1 | > 10 | Not Active | Non-toxic | –
Cc1cccc(C(=O)Nc2nc(-c3ccccc3)c(Br)s2)c1O | – | – | Non-toxic | Toxic
CC(=O)Oc1ccccc1C(=O)Nc1nnc(C(F)(F)F)s1 | – | – | Non-toxic | –
CSc1nnc(NC(=O)c2ccccc2OC(C)=O)s1 | 6.4 (≈ 20.7 µM) | 9.2 µg/mL (≈ 29.7 µM) | Non-toxic | Toxic
COc1cccc(C(=O)Nc2ncc(Br)s2)c1OC(C)=O | 4.6 (≈ 12.4 µM) | Not Active | Non-toxic | –
Cc1cccc(C(=O)Nc2ncc(Br)s2)c1O | – | – | Non-toxic | Toxic
Cc1cccc(C(=O)Nc2nc(C)c(Br)s2)c1O | – | – | Non-toxic | Toxic
Cc1cccc(C(=O)Nc2ncc(Cl)s2)c1O | 2.3 (≈ 8.56 µM) | 4.6 µg/mL (≈ 17.1 µM) | Non-toxic | Toxic
CC(=O)Oc1ccccc1C(=O)Nc1ncc(Br)s1 | – | – | Non-toxic | –
Cc1ccc(C(=O)Nc2ncc(Cl)s2)c(O)c1 | – | – | Non-toxic | Toxic
CC(=O)Oc1ccccc1C(=O)Nc1nncs1 | 5 (≈ 19 µM) | Not Active | Non-toxic | –
COc1cccc(C(=O)Nc2ncc([N+](=O)[O-])s2)c1O | – | 0.4 µg/mL and 1 µg/mL | Non-toxic | Toxic
CC(=O)Oc1c(C)cccc1C(=O)Nc1ncc(Br)s1 | – | – | Non-toxic | Toxic
O=C(Nc1nc(-c2ccccc2)c(Br)s1)c1ccccc1O | – | 0.4 µg/mL and 1 µg/mL | Non-toxic | Toxic

SMILES | IC50 (Cryptosporidium parvum; [3]) [µg/mL] | IC50 (Cryptosporidium parvum; htc8) | Activity (HCT-8 [1]) | Activity (HCT-8 [2])
CCOC(=O)Cc1csc(NC(=O)c2ccccc2OC(C)=O)n1 | 8.4 (≈ 24.1 µM) | Not Active | Non-toxic | –
CC(=O)Oc1ccc(C)cc1C(=O)Nc1ncc(Cl)s1 | – | – | Non-toxic | Toxic
O=C(Nc1ncc(Br)s1)c1ccccc1O | – | – | Non-toxic | –
CCOC(=O)Cc1nnc(NC(=O)c2ccccc2OC(C)=O)s1 | > 10 | Not Active | Non-toxic | –
Cc1ccc(C(=O)Nc2ncc(Br)s2)c(O)c1 | 5.2 (≈ 16.6 µM) | 9.3 µg/mL (≈ 29.7 µM) | Non-toxic | –
O=C(Nc1nccs1)c1ccccc1O | > 10 | Not Active | Non-toxic | –
CC(=O)Oc1c(C)cccc1C(=O)Nc1ncc([N+](=O)[O-])s1 | 0.5 (≈ 1.56 µM) | 1 µg/mL (≈ 3.11 µM) | Non-toxic | Toxic
CC(=O)Oc1ccc(C)cc1C(=O)Nc1ncc(Br)s1 | – | 1.7 µg/mL and 4.4 µg/mL | Non-toxic | Toxic
CC(=O)Oc1cc(C)ccc1C(=O)Nc1ncc(Br)s1 | – | – | Non-toxic | –
COc1ccccc1C(=O)Nc1ncc([N+](=O)[O-])s1 | 5.5 (≈ 19.7 µM) | Not Active | Non-toxic | –
CC(=O)Oc1ccccc1C(=O)Nc1ncc([N+](=O)[O-])s1 [NITAZOXANIDE] | – | – | Non-toxic | –
CC(=O)Oc1ccccc1C(=O)Nc1nc(C)c(Br)s1 | – | 2.1 µg/mL and 4.8 µg/mL | Non-toxic | –
Cc1nc(NC(=O)c2ccccc2O)sc1Br | – | – | Non-toxic | Toxic
O=C(Nc1ncc(F)s1)c1ccccc1O | – | – | Non-toxic | Toxic
CC(=O)Oc1ccccc1C(=O)Nc1ncc(S(C)(=O)=O)s1 | 5 (≈ 14.7 µM) | Not Active | Non-toxic | –
Cc1nc(NC(=O)c2ccccc2O)sc1[N+](=O)[O-] | 0.6 (≈ 2.15 µM) | 1 µg/mL (≈ 3.58 µM) | Non-toxic | Toxic
O=C(Nc1ncc(Cl)s1)c1ccccc1O | – | 2.6 µg/mL and 6 µg/mL | Non-toxic | Toxic
Cc1ccc(O)c(C(=O)Nc2ncc(Cl)s2)c1 | – | – | Non-toxic | –
